# Legend:
# Format in all cases: cell-based
# E. coli DH5α = test: Antibacterial activity: MIC and growth curve against E. coli DH5α in 96-well plate; conditions: minimal inhibitory concentration against E. coli DH5α; 96-well plate, 5×10^5 CFU/mL, 37° C., judged after 8 h
# Summary of the method: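 MIC taken as lowest protein level with no bacterial growth, tracked by A600 every 30 min during 37 °C, 175 rpm culture. Two-fold protein series 50-12.5 μg/mL final, triplicate wells, against 5×10^5 CFU/mL of LB-washed mid-log cells.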
# E. coli BL21 = test: MIC against Gram-negative bacteria: E. coli BL21; conditions: 5×10^5 CFU/mL
# Summary of the method: (§1)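 MIC = lowest concentration of recombinant protein showing no growth. Test proteins: purified human-derived EGF domain proteins, two-fold dilution series, three wells per concentration; inoculum 5×10^5 CFU/mL in LB; incubation 37° C with shaking at 175 rpm.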
# Pseudomonas aeruginosa = test: MIC against Gram-negative bacteria: Pseudomonas aeruginosa; conditions: 5×10^5 CFU/mL
# Summary of the method: as §1
# Klebsiella pneumonia = test: MIC against Gram-negative bacteria: Klebsiella pneumonia; conditions: 5×10^5 CFU/mL
# Summary of the method: as §1
# Enterobacter cloacae = test: MIC against Gram-negative bacteria: Enterobacter cloacae; conditions: 5×10^5 CFU/mL
# Summary of the method: as §1
# Aeromonas hydrophila = test: MIC against Gram-negative bacteria: Aeromonas hydrophila; conditions: 5×10^5 CFU/mL
# Summary of the method: as §1
# Citrobacter diversus = test: MIC against Gram-negative bacteria: Citrobacter diversus; conditions: 5×10^5 CFU/mL
# Summary of the method: as §1
# Moraxella catarrhalis = test: MIC against Gram-negative bacteria: Moraxella catarrhalis; conditions: 5×10^5 CFU/mL
# Summary of the method: as §1
# Proteus mirabilis = test: MIC against Gram-negative bacteria: Proteus mirabilis; conditions: 5×10^5 CFU/mL
# Summary of the method: as §1
# Proteus vulgaris = test: MIC against Gram-negative bacteria: Proteus vulgaris; conditions: 5×10^5 CFU/mL
# Summary of the method: as §1
# Serratia marcescens = test: MIC against Gram-negative bacteria: Serratia marcescens; conditions: 5×10^5 CFU/mL
# Summary of the method: as §1
# [1] = E. coli BL21, 96-well plate, 37° C., 10 h
# [2] = Pseudomonas aeruginosa, 96-well plate, 37° C., 10 h
# [3] = Klebsiella pneumonia, 96-well plate, 37° C., 10 h
# [4] = Enterobacter cloacae, 96-well plate, 37° C., 10 h
# [5] = Aeromonas hydrophila, 96-well plate, 37° C., 10 h
# [6] = Citrobacter diversus, 96-well plate, 37° C., 10 h
# [7] = Moraxella catarrhalis, 96-well plate, 37° C., 10 h
# [8] = Proteus mirabilis, 96-well plate, 37° C., 10 h
# [9] = Proteus vulgaris, 96-well plate, 37° C., 10 h
# [10] = Serratia marcescens, 96-well plate, 37° C., 10 h
# [11] = 10 h cultivation at 37° C., two-fold serial dilution
# [12] = E. coli BL21, 10 h cultivation at 37° C.
# [13] = P. aeruginosa, 10 h cultivation at 37° C.
# [14] = K. pneumonia, 10 h cultivation at 37° C.
# [15] = E. cloacae, 10 h cultivation at 37° C.
# [16] = A. hydrophila, 10 h cultivation at 37° C.
# [17] = C. diversus, 10 h cultivation at 37° C.
# [18] = M. catarrhalis, 10 h cultivation at 37° C.
# [19] = P. mirabilis, 10 h cultivation at 37° C.
# [20] = P. vulgaris, 10 h cultivation at 37° C.
# [21] = S. marcescens, 10 h cultivation at 37° C.
substance,measurement,setting,value
PRT620 (CPCHNGFSCSVMPETEEVVCNNCPPGVTGARCELCADGYFGDPFGEHGPVRPCQP; listed as Homo sapiens),MIC,E. coli DH5α,25 µg/mL
same,MIC E. coli BL21,"E. coli BL21; 96-well plate, 37° C., 10 h",12.5 µg/mL
same,MIC P. aeruginosa,"Pseudomonas aeruginosa; 96-well plate, 37° C., 10 h",25 µg/mL
same,MIC K. pneumonia,"Klebsiella pneumonia; 96-well plate, 37° C., 10 h",50 µg/mL
same,MIC E. cloacae,"Enterobacter cloacae; 96-well plate, 37° C., 10 h",12.5 µg/mL
same,MIC A. hydrophila,"Aeromonas hydrophila; 96-well plate, 37° C., 10 h",50 µg/mL
same,MIC C. diversus,"Citrobacter diversus; 96-well plate, 37° C., 10 h",12.5 µg/mL
same,MIC M. catarrhalis,"Moraxella catarrhalis; 96-well plate, 37° C., 10 h",50 µg/mL
same,MIC P. mirabilis,"Proteus mirabilis; 96-well plate, 37° C., 10 h",25 µg/mL
same,MIC P. vulgaris,"Proteus vulgaris; 96-well plate, 37° C., 10 h",12.5 µg/mL
same,MIC S. marcescens,"Serratia marcescens; 96-well plate, 37° C., 10 h",25 µg/mL
PRT96 (AQRFCPDGSPSECHEHADCVLERDGSRSCVCAVGWAGNGILCG; listed as Homo sapiens),MIC,E. coli DH5α,12.5 µg/mL
same,MIC (μg/mL) E. coli BL21,E. coli BL21; [1],25 µg/mL
same,MIC (μg/mL) P. aeruginosa,Pseudomonas aeruginosa; [2],12.5 µg/mL
same,MIC (μg/mL) K. pneumonia,Klebsiella pneumonia; [3],12.5 µg/mL
same,MIC (μg/mL) E. cloacae,Enterobacter cloacae; [4],12.5 µg/mL
same,MIC (μg/mL) A. hydrophila,Aeromonas hydrophila; [5],12.5 µg/mL
same,MIC (μg/mL) C. diversus,Citrobacter diversus; [6],12.5 µg/mL
same,MIC (μg/mL) M. catarrhalis,Moraxella catarrhalis; [7],12.5 µg/mL
same,MIC (μg/mL) P. mirabilis,Proteus mirabilis; [8],12.5 µg/mL
same,MIC (μg/mL) P. vulgaris,Proteus vulgaris; [9],25 µg/mL
same,MIC (μg/mL) S. marcescens,Serratia marcescens; [10],12.5 µg/mL
PRT1161 (DIDECASHPCKNGATCIDQPGNYFCQCVPPFKVVDGFSCL; listed as Homo sapiens),MIC,E. coli DH5α,25 µg/mL
same,MIC E. coli BL21,E. coli BL21; [11],12.5 µg/mL
same,MIC P. aeruginosa,Pseudomonas aeruginosa; [11],12.5 µg/mL
same,MIC K. pneumonia,Klebsiella pneumonia; [11],12.5 µg/mL
same,MIC E. cloacae,Enterobacter cloacae; [11],25 µg/mL
same,MIC A. hydrophila,Aeromonas hydrophila; [11],25 µg/mL
same,MIC C. diversus,Citrobacter diversus; [11],50 µg/mL
same,MIC M. catarrhalis,Moraxella catarrhalis; [11],25 µg/mL
same,MIC P. mirabilis,Proteus mirabilis; [11],12.5 µg/mL
same,MIC P. vulgaris,Proteus vulgaris; [11],25 µg/mL
same,MIC S. marcescens,Serratia marcescens; [11],50 µg/mL
PRT117 (DVDECALGRSPCAQGCTNTDGSFHCSCEEGYVLAGEDGTQCQ; listed as Homo sapiens),MIC,E. coli DH5α,12.5 µg/mL
same,MIC (μg/mL) E. coli BL21,E. coli BL21; [1],12.5 µg/mL
same,MIC (μg/mL) P. aeruginosa,Pseudomonas aeruginosa; [2],25 µg/mL
same,MIC (μg/mL) K. pneumonia,Klebsiella pneumonia; [3],12.5 µg/mL
same,MIC (μg/mL) E. cloacae,Enterobacter cloacae; [4],25 µg/mL
same,MIC (μg/mL) A. hydrophila,Aeromonas hydrophila; [5],12.5 µg/mL
same,MIC (μg/mL) C. diversus,Citrobacter diversus; [6],25 µg/mL
same,MIC (μg/mL) M. catarrhalis,Moraxella catarrhalis; [7],12.5 µg/mL
same,MIC (μg/mL) P. mirabilis,Proteus mirabilis; [8],25 µg/mL
same,MIC (μg/mL) P. vulgaris,Proteus vulgaris; [9],12.5 µg/mL
same,MIC (μg/mL) S. marcescens,Serratia marcescens; [10],12.5 µg/mL
PRT783 (WGPNCSLPCYCKNGASCSPDDGICECAPGFRGTTCQ; listed as Homo sapiens),MIC,E. coli DH5α,25 µg/mL
same,MIC (μg/mL) E. coli BL21,E. coli BL21; [12],12.5 µg/mL
same,MIC (μg/mL) P. aeruginosa,Pseudomonas aeruginosa; [13],50 µg/mL
same,MIC (μg/mL) K. pneumonia,Klebsiella pneumonia; [14],12.5 µg/mL
same,MIC (μg/mL) E. cloacae,Enterobacter cloacae; [15],25 µg/mL
same,MIC (μg/mL) A. hydrophila,Aeromonas hydrophila; [16],50 µg/mL
same,MIC (μg/mL) C. diversus,Citrobacter diversus; [17],25 µg/mL
same,MIC (μg/mL) M. catarrhalis,Moraxella catarrhalis; [18],12.5 µg/mL
same,MIC (μg/mL) P. mirabilis,Proteus mirabilis; [19],25 µg/mL
same,MIC (μg/mL) P. vulgaris,Proteus vulgaris; [20],50 µg/mL
same,MIC (μg/mL) S. marcescens,Serratia marcescens; [21],12.5 µg/mL
PRT1238 (IGEACPKLCSGHGYCTTGAICICDESFQGDDCS; listed as Homo sapiens),MIC,E. coli DH5α,25 µg/mL
same,MIC against E. coli BL21,E. coli BL21; [1],12.5 µg/mL
same,MIC against P. aeruginosa,Pseudomonas aeruginosa; [2],50 µg/mL
same,MIC against K. pneumonia,Klebsiella pneumonia; [3],12.5 µg/mL
same,MIC against E. cloacae,Enterobacter cloacae; [4],50 µg/mL
same,MIC against A. hydrophila,Aeromonas hydrophila; [5],12.5 µg/mL
same,MIC against C. diversus,Citrobacter diversus; [6],50 µg/mL
same,MIC against M. catarrhalis,Moraxella catarrhalis; [7],25 µg/mL
same,MIC against P. mirabilis,Proteus mirabilis; [8],12.5 µg/mL
same,MIC against P. vulgaris,Proteus vulgaris; [9],25 µg/mL
same,MIC against S. marcescens,Serratia marcescens; [10],50 µg/mL
PRT869 (CKCNLHATVCVYDNSKLTCECEHNTTGPDCGKCKKNYQGRPWSPGSYLPIPKGTANTCIP; listed as Homo sapiens),MIC,E. coli DH5α,12.5 µg/mL
same,MIC (μg/mL) E. coli BL21,E. coli BL21; [12],25 µg/mL
same,MIC (μg/mL) P. aeruginosa,Pseudomonas aeruginosa; [13],12.5 µg/mL
same,MIC (μg/mL) K. pneumonia,Klebsiella pneumonia; [14],12.5 µg/mL
same,MIC (μg/mL) E. cloacae,Enterobacter cloacae; [15],12.5 µg/mL
same,MIC (μg/mL) A. hydrophila,Aeromonas hydrophila; [16],12.5 µg/mL
same,MIC (μg/mL) C. diversus,Citrobacter diversus; [17],12.5 µg/mL
same,MIC (μg/mL) M. catarrhalis,Moraxella catarrhalis; [18],12.5 µg/mL
same,MIC (μg/mL) P. mirabilis,Proteus mirabilis; [19],12.5 µg/mL
same,MIC (μg/mL) P. vulgaris,Proteus vulgaris; [20],12.5 µg/mL
same,MIC (μg/mL) S. marcescens,Serratia marcescens; [21],50 µg/mL
PRT1086 (HFKPCRDKDLAYCLNDGECFVIETLTGSHKHCRCKEGYQGVRCD; listed as Homo sapiens),MIC,E. coli DH5α,12.5 µg/mL
same,MIC E. coli BL21,E. coli BL21; [11],25 µg/mL
same,MIC P. aeruginosa,Pseudomonas aeruginosa; [11],50 µg/mL
same,MIC K. pneumonia,Klebsiella pneumonia; [11],25 µg/mL
same,MIC E. cloacae,Enterobacter cloacae; [11],12.5 µg/mL
same,MIC A. hydrophila,Aeromonas hydrophila; [11],25 µg/mL
same,MIC C. diversus,Citrobacter diversus; [11],50 µg/mL
same,MIC M. catarrhalis,Moraxella catarrhalis; [11],25 µg/mL
same,MIC P. mirabilis,Proteus mirabilis; [11],12.5 µg/mL
same,MIC P. vulgaris,Proteus vulgaris; [11],50 µg/mL
same,MIC S. marcescens,Serratia marcescens; [11],12.5 µg/mL
PRT1201 (DIDECALRTHTCWNDSACINLAGGFDCLCPSGPSCS; listed as Homo sapiens),MIC,E. coli DH5α,12.5 µg/mL
same,MIC against E. coli BL21,E. coli BL21; [1],50 µg/mL
same,MIC against P. aeruginosa,Pseudomonas aeruginosa; [2],12.5 µg/mL
same,MIC against K. pneumonia,Klebsiella pneumonia; [3],25 µg/mL
same,MIC against E. cloacae,Enterobacter cloacae; [4],50 µg/mL
same,MIC against A. hydrophila,Aeromonas hydrophila; [5],25 µg/mL
same,MIC against C. diversus,Citrobacter diversus; [6],12.5 µg/mL
same,MIC against M. catarrhalis,Moraxella catarrhalis; [7],50 µg/mL
same,MIC against P. mirabilis,Proteus mirabilis; [8],25 µg/mL
same,MIC against P. vulgaris,Proteus vulgaris; [9],12.5 µg/mL
same,MIC against S. marcescens,Serratia marcescens; [10],25 µg/mL
PRT524 (CNCSRRGTIEAAMPECDRDSGQCRCKPRITGRQCDRCASGFYRFPECVP; listed as Homo sapiens),MIC,E. coli DH5α,12.5 µg/mL
same,MIC against E. coli BL21,"E. coli BL21; 96-well plate, 37° C., 10 h",12.5 µg/mL
same,MIC against P. aeruginosa,"Pseudomonas aeruginosa; 96-well plate, 37° C., 10 h",12.5 µg/mL
same,MIC against K. pneumonia,"Klebsiella pneumonia; 96-well plate, 37° C., 10 h",25 µg/mL
same,MIC against E. cloacae,"Enterobacter cloacae; 96-well plate, 37° C., 10 h",12.5 µg/mL
same,MIC against A. hydrophila,"Aeromonas hydrophila; 96-well plate, 37° C., 10 h",25 µg/mL
same,MIC against C. diversus,"Citrobacter diversus; 96-well plate, 37° C., 10 h",100 µg/mL
same,MIC against M. catarrhalis,"Moraxella catarrhalis; 96-well plate, 37° C., 10 h",25 µg/mL
same,MIC against P. mirabilis,"Proteus mirabilis; 96-well plate, 37° C., 10 h",12.5 µg/mL
same,MIC against P. vulgaris,"Proteus vulgaris; 96-well plate, 37° C., 10 h",25 µg/mL
same,MIC against S. marcescens,"Serratia marcescens; 96-well plate, 37° C., 10 h",50 µg/mL

# Reference: patent US9833497B2, “Human originated EGF domain proteins and use of the same” (CHENGDU SOURCEBIO LIMITED-LIABILITY COMPANY, priority 2013, dated 2017)
